Experimental data: US9156801B2, “2-substituted oleanolic acid derivative, method preparing for same, and application thereof” (HANGZHOU BENSHENG PHARMACEUTICAL CO., LTD., priority 2011, dated 2015)
Values after ≈ are worked out from the molar mass of the structure shown.

Tests used:
[1] = system: H9 cell line; assay: leukemia cell growth inhibition, MTT; type: cell-based; conditions: Homo sapiens; for IC50: H9, 72 h; for inhibition at 16 µg/mL: H9, 16 μg/mL compound, 72 h, read-out: IR (cell proliferation inhibition rate)
In short: (§1)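 Cells seeded at 6000/well, RPMI 1640 + 10% FBS; compound dilution series added; 72 h, 37° C, 5% CO2. Readout MTT; untreated control = 0% inhibition.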

[2] = system: Jurkat cell line; assay: leukemia cell growth inhibition, MTT; type: cell-based; conditions: Homo sapiens, 72 h; for inhibition at 16 µg/mL: 16 μg/mL compound, read-out: IR (cell proliferation inhibition rate)
In short: as §1

[3] = system: K562/adr cell line; assay: leukemia cell growth inhibition, MTT; type: cell-based; conditions: Homo sapiens, 72 h; for IC50: K562/Adr; for inhibition at 16 µg/mL: K562/adr, 16 μg/mL compound, read-out: IR (cell proliferation inhibition rate)
In short: as §1

[4] = system: Kasumi-1 cell line; assay: leukemia cell growth inhibition, MTT; type: cell-based; conditions: Homo sapiens; for inhibition at 16 µg/mL: Kasumi-1, 16 μg/mL compound, 72 h, read-out: IR (cell proliferation inhibition rate); for IC50: Kasumi-1, 72 h
In short: as §1

[5] = system: NB4 cell line; assay: leukemia cell growth inhibition, MTT; type: cell-based; conditions: Homo sapiens, NB-4; for inhibition at 16 µg/mL: NB4, 16 μg/mL compound, 72 h, read-out: IR (cell proliferation inhibition rate); for IC50: NB4, 72 h
In short: as §1

[6] = system: RPMI8226 cell line; assay: multiple myeloma cell growth inhibition, MTT; type: cell-based; conditions: Homo sapiens, RPMI-8226; for inhibition at 16 µg/mL: RPMI8226, 16 μg/mL compound, 72 h, read-out: IR (cell proliferation inhibition rate); for IC50: RPMI8226, 72 h
In short: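 Viability was measured by MTT after a 72 h compound exposure (37° C, 5% CO2) of RPMI8226 myeloma cells seeded at 6000 per well in 1640 medium with 10% fetal bovine serum. Growth inhibition was expressed relative to untreated cells, taken as 0%.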

[7] = system: Hep G2 cell line; assay: solid tumor cell growth inhibition, MTT; type: cell-based, human; conditions: for inhibition at 16 µg/mL / IC50: Homo sapiens; for inhibition at 16 µg/mL: HepG2, 72 h, Hep G2, 16 μg/mL compound, 72 h, read-out: IR (cell proliferation inhibition rate); for IC50: HepG2, Hep G2, 72 h
In short: (§2)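 Seed 4000 tumor cells per well in DMEM high glucose with 10% FBS; culture 24 h at 37° C under 5% CO2; add compound at several concentrations and incubate 72 h; quantify living cells by MTT against untreated control (0% inhibition).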

[8] = system: A549 cell line; assay: solid tumor cell growth inhibition, MTT; type: cell-based; conditions: Homo sapiens; for IC50: A549, 72 h; for inhibition at 16 µg/mL: A549, 16 μg/mL compound, 72 h, read-out: IR (cell proliferation inhibition rate)
In short: as §2

[9] = system: Becap37 cell line; assay: solid tumor cell growth inhibition, MTT; type: cell-based; conditions: Homo sapiens; for inhibition at 16 µg/mL: Becap37, 16 μg/mL compound, 72 h, read-out: IR (cell proliferation inhibition rate); for IC50: Becap37, 72 h
In short: as §2

[10] = system: CNE cell line; assay: solid tumor cell growth inhibition, MTT; type: cell-based; conditions: Homo sapiens, 72 h; for inhibition at 16 µg/mL: 16 μg/mL compound, read-out: IR (cell proliferation inhibition rate)
In short: as §2

[11] = system: CaES-17 cell line; assay: solid tumor cell growth inhibition, MTT; type: cell-based; conditions: Homo sapiens, CaEs17; for inhibition at 16 µg/mL: CaES-17, 16 μg/mL compound, 72 h, read-out: IR (cell proliferation inhibition rate); for IC50: CaES-17, 72 h
In short: as §2

[12] = system: Hela cell line; assay: solid tumor cell growth inhibition, MTT; type: cell-based; conditions: Homo sapiens, 72 h; for IC50: HeLa; for inhibition at 16 µg/mL: Hela, 16 μg/mL compound, read-out: IR (cell proliferation inhibition rate)
In short: as §2

[13] = system: Hep-2 cell line; assay: solid tumor cell growth inhibition, MTT; type: cell-based; conditions: Homo sapiens; for IC50: HEp-2, 72 h; for inhibition at 16 µg/mL: Hep-2, 16 μg/mL compound, 72 h, read-out: IR (cell proliferation inhibition rate)
In short: as §2

[14] = system: MG-63 cell line; assay: solid tumor cell growth inhibition, MTT; type: cell-based; conditions: Homo sapiens; for IC50: MG-63, 72 h; for inhibition at 16 µg/mL: MG-63, 16 μg/mL compound, 72 h, read-out: IR (cell proliferation inhibition rate)
In short: as §2

[15] = system: MGC 803 cell line; assay: solid tumor cell growth inhibition, MTT; type: cell-based; conditions: Homo sapiens; for inhibition at 16 µg/mL: MGC 803, 16 μg/mL compound, 72 h, read-out: IR (cell proliferation inhibition rate); for IC50: MGC 803, 72 h
In short: as §2

[16] = system: PANC-1 cell line; assay: solid tumor cell growth inhibition, MTT; type: cell-based; conditions: Homo sapiens; for IC50: PANC-1, 72 h; for inhibition at 16 µg/mL: PANC-1, 16 μg/mL compound, 72 h, read-out: IR (cell proliferation inhibition rate)
In short: as §2

[17] = system: PC-3 cell line; assay: solid tumor cell growth inhibition, MTT; type: cell-based; conditions: Homo sapiens; for IC50: PC-3, 72 h; for inhibition at 16 µg/mL: PC-3, 16 μg/mL compound, 72 h, read-out: IR (cell proliferation inhibition rate)
In short: as §2

[18] = system: RKO cell line; assay: solid tumor cell growth inhibition, MTT; type: cell-based; conditions: Homo sapiens, 72 h; for inhibition at 16 µg/mL: 16 μg/mL compound, read-out: IR (cell proliferation inhibition rate)
In short: as §2

[19] = system: SK-OV-3 cell line; assay: solid tumor cell growth inhibition, MTT; type: cell-based; conditions: Homo sapiens; for IC50: SK-OV-3, 72 h; for inhibition at 16 µg/mL: SK-OV-3, 16 μg/mL compound, 72 h, read-out: IR (cell proliferation inhibition rate)
In short: as §2

[20] = system: U87 MG cell line; assay: solid tumor cell growth inhibition, MTT; type: cell-based; conditions: Homo sapiens, U-87 MG, 72 h; for inhibition at 16 µg/mL: 16 μg/mL compound, read-out: IR (cell proliferation inhibition rate)
In short: as §2

## CN(C)CCCNC(=O)C1C[C@@]2(C)C(CC[C@]3(C)C2CC=C2C4CC(C)(C)CC[C@]4(C(=O)O)CC[C@]23C)C(C)(C)C1=O (stereo partly shown) [BS-OA-109]
[1]
  IC50: > 16 µg/mL
  inhibition at 16 µg/mL: 39.4%
[2]
  inhibition at 16 µg/mL: 32.3%
  IC50: > 16 µg/mL
[3]
  IC50: 6.8 µg/mL (≈ 11.7 µM)
  inhibition at 16 µg/mL: 86.2%
[4]
  inhibition at 16 µg/mL: 36.2%
  IC50: > 16 µg/mL
[5]
  inhibition at 16 µg/mL: 76.6%
  IC50: 10.8 µg/mL (≈ 18.5 µM)
[6]
  inhibition at 16 µg/mL: 96%
  IC50: 6.21 µg/mL (≈ 10.7 µM)
[7]
  inhibition at 16 µg/mL: 32.1%
  IC50: > 16 µg/mL
[8]
  IC50: > 16 µg/mL
  inhibition at 16 µg/mL: 7.5%
[9]
  inhibition at 16 µg/mL: 19.7%
  IC50: > 16 µg/mL
[10]
  inhibition at 16 µg/mL: 36.5%
  IC50: > 16 µg/mL
[11]
  inhibition at 16 µg/mL: 4.1%
  IC50: > 16 µg/mL
[12]
  IC50: > 16 µg/mL
  inhibition at 16 µg/mL: 23.6%
[13]
  IC50: > 16 µg/mL
  inhibition at 16 µg/mL: 11.3%
[14]
  IC50: > 16 µg/mL
  inhibition at 16 µg/mL: 18.9%
[15]
  inhibition at 16 µg/mL: 4.9%
  IC50: > 16 µg/mL
[16]
  IC50: > 16 µg/mL
  inhibition at 16 µg/mL: 12.9%
[17]
  IC50: > 16 µg/mL
  inhibition at 16 µg/mL: -5.5%
[18]
  inhibition at 16 µg/mL: -4.9%
  IC50: > 16 µg/mL
[19]
  IC50: > 16 µg/mL
  inhibition at 16 µg/mL: -13.5%
[20]
  inhibition at 16 µg/mL: -3.8%
  IC50: > 16 µg/mL

## CN1CCN(CCCNC(=O)C2C[C@]3(C)[C@H]4CC=C5[C@@H]6CC(C)(C)CC[C@]6(C(=O)O)CC[C@@]5(C)[C@]4(C)CC[C@H]3C(C)(C)C2=O)CC1 (stereo partly shown) [BS-OA-110]
[1]
  IC50: > 16 µg/mL
  inhibition at 16 µg/mL: 37.9%
[2]
  inhibition at 16 µg/mL: 45.5%
  IC50: 18.4 µg/mL (≈ 28.8 µM)
[3]
  IC50: 8.79 µg/mL (≈ 13.8 µM)
  inhibition at 16 µg/mL: 81.9%
[4]
  inhibition at 16 µg/mL: 41.7%
  IC50: > 16 µg/mL
[5]
  inhibition at 16 µg/mL: 78.8%
  IC50: 8.95 µg/mL (≈ 14 µM)
[6]
  inhibition at 16 µg/mL: 96.7%
  IC50: 8.58 µg/mL (≈ 13.4 µM)
[7]
  inhibition at 16 µg/mL: 29.5%
  IC50: > 16 µg/mL
[8]
  IC50: > 16 µg/mL
  inhibition at 16 µg/mL: 4%
[9]
  inhibition at 16 µg/mL: 22.2%
  IC50: > 16 µg/mL
[10]
  inhibition at 16 µg/mL: 30.1%
  IC50: > 16 µg/mL
[11]
  inhibition at 16 µg/mL: -1%
  IC50: > 16 µg/mL
[12]
  IC50: > 16 µg/mL
  inhibition at 16 µg/mL: 26.1%
[13]
  IC50: > 16 µg/mL
  inhibition at 16 µg/mL: -6.3%
[14]
  IC50: > 16 µg/mL
  inhibition at 16 µg/mL: 29.5%
[15]
  inhibition at 16 µg/mL: 2.9%
  IC50: > 16 µg/mL
[16]
  IC50: > 16 µg/mL
  inhibition at 16 µg/mL: 13.1%
[17]
  IC50: > 16 µg/mL
  inhibition at 16 µg/mL: -11.4%
[18]
  inhibition at 16 µg/mL: -19.1%
  IC50: > 16 µg/mL
[19]
  IC50: > 16 µg/mL
  inhibition at 16 µg/mL: -20.1%
[20]
  inhibition at 16 µg/mL: -12.6%
  IC50: > 16 µg/mL

## CC1(C)CC[C@]2(C(=O)O)CC[C@]3(C)C(=CC[C@@H]4[C@@]5(C)CC[C@H](O)C(C)(C)[C@@H]5CC[C@]43C)[C@@H]2C1 [OA, Oleanolic acid]
[1]
  IC50: > 16 µg/mL
  inhibition at 16 µg/mL: 22.8%
[2]
  inhibition at 16 µg/mL: 9.4%
  IC50: > 16 µg/mL
[3]
  IC50: > 16 µg/mL
  inhibition at 16 µg/mL: 26.5%
[4]
  inhibition at 16 µg/mL: 17.2%
  IC50: > 16 µg/mL
[5]
  inhibition at 16 µg/mL: 17.2%
  IC50: > 16 µg/mL
[6]
  inhibition at 16 µg/mL: 2.2%
  IC50: > 16 µg/mL
[7]; Hep G2
  proliferation inhibition effect (in words): does not exhibit obvious proliferation inhibition effect
[7]
  inhibition at 16 µg/mL: -18.5%
  IC50: > 16 µg/mL
[8]
  IC50: > 16 µg/mL
  inhibition at 16 µg/mL: 5%
[9]
  inhibition at 16 µg/mL: 23.4%
  IC50: > 16 µg/mL
[10]
  inhibition at 16 µg/mL: 33.9%
  IC50: > 16 µg/mL
[11]
  inhibition at 16 µg/mL: 27.4%
  IC50: > 16 µg/mL
[12]
  IC50: > 16 µg/mL
  inhibition at 16 µg/mL: 22.9%
[13]
  IC50: > 16 µg/mL
  inhibition at 16 µg/mL: 9.8%
[14]
  IC50: > 16 µg/mL
  inhibition at 16 µg/mL: 29.2%
[15]
  inhibition at 16 µg/mL: 19.7%
  IC50: > 16 µg/mL
[16]
  IC50: > 16 µg/mL
  inhibition at 16 µg/mL: 8.5%
[17]
  IC50: > 16 µg/mL
  inhibition at 16 µg/mL: 29.1%
[18]
  inhibition at 16 µg/mL: 14.3%
  IC50: > 16 µg/mL
[19]
  IC50: > 16 µg/mL
  inhibition at 16 µg/mL: 8.3%
[20]
  inhibition at 16 µg/mL: 21.8%
  IC50: > 16 µg/mL
